Measured values: patent US9550811B2, “Peptide scaffold design” (BIONOR IMMUNO AS, priority 2010, dated 2017)
Where no end group is shown, it is not given here. [ ]: non-standard residue; d: D form. Cit = NC(=O)NCCC[C@H](N)C(=O)O; Nle = CCCC[C@H](N)C(=O)O

Columns and labels:
Assay in all cases: REVEAL binding assay
Details in all cases: score as percentage of the signal generated by the positive control peptide
HLA-A1 = system: HLA-A1
HLA-A24 = system: HLA-A24
HLA-A29 = system: HLA-A29
HLA-B8 = system: HLA-B8
HLA-B14 = system: HLA-B14
Source text: (§5) The REVEAL™ binding assay determined the ability of each candidate peptide to bind to one or more MHC class I alleles and stabilizing the MHC-peptide complex. […] Detection is based on the presence or absence of the native conformation of the MHC-peptide complex. Each peptide is given a score relative to the positive control peptide, which is a known T cell epitope.

HLA-B15 = system: HLA-B15
Source text: as §5

HLA-A11 = HLA-A11 (Homo sapiens, UniProt P04439, A114D/F33Y/S129P)
Experimental: (§1) Binding properties to HLA for the ninemers listed in table 6 were tested for the following HLA-classes:
(§2) HLA-A1, HLA-A2, HLA-A3, HLA-A11, HLA-A24, HLA-A29, HLA-B7, HLA-B8, HLA-B14, HLA-B15, HLA-B27, HLA-B35, HLA-B40.
(§3) The peptides were synthesized as a Prospector PEPscreen®: Custom Peptide Library. […] Quality control by MALDI-TOF Mass Spectrometry was carried out on 100% of samples.
(§4) The REVEAL™ binding assay determined the ability of each candidate peptide to bind to one or more MHC class I alleles and stabilizing the MHC-peptide complex. By comparing the binding to that of high and intermediate affinity T cell epitopes, the most likely immunogenic peptides in a protein sequence can be identified. Detection is based on the presence or absence of the native conformation of the MHC-peptide complex. Each peptide is given a score relative to the positive control peptide, which is a known T cell epitope.

HLA-A2 = HLA-A2 (Homo sapiens, UniProt P04439, D140Y/D185E/D98H/E176V/E277Q/G131W/G231S/I119V/I121R/I166T/I218V/N151K/N90K/P208A/P217A/Q86G/Q94H/R138H/R169H)
Experimental: as §1, §2, §3, §4

HLA-A3 = HLA-A3 (Homo sapiens, UniProt P04439)
HLA-A3, sequence (P04439 25-299): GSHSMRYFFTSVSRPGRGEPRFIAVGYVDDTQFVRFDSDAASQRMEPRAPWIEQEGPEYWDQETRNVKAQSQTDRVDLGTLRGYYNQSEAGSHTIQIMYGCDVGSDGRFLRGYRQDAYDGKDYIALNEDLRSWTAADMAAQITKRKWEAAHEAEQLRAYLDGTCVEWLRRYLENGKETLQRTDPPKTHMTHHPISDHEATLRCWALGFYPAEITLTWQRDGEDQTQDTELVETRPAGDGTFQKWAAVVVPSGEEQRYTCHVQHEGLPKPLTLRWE
HLA-A3, sequence (P61769 21-119, further chain): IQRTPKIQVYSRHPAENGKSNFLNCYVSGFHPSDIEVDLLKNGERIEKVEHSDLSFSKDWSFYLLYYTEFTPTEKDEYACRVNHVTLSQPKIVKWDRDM
Experimental: as §1, §2, §3, §4

HLA-B27 = HLA-B27 (Homo sapiens, UniProt P01889, D138H/D201E/E176V/E204Q/G107R/H137Y/K202T/N104T/N87E/Q56L/Q94K/R106L/R155S/R180L/S101D/S121N/S48T/Y140D/Y33H/Y91C)
Experimental: as §1, §2, §3, §4

HLA-B7 = HLA-B7 (Homo sapiens, UniProt P01889)
HLA-B7, sequence (P61769 21-119): as the sequence (P61769 21-119, further chain) above
HLA-B7, sequence (P01889 25-299): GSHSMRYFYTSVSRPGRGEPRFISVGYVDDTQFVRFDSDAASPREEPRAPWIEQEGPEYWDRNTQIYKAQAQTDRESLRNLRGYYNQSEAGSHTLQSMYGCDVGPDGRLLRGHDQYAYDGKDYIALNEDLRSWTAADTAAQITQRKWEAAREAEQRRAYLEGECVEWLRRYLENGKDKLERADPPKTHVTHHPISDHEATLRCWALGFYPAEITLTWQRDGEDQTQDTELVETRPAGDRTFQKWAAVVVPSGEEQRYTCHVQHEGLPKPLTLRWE
Experimental: as §1, §2, §3, §4

HLA-B35 = system: HLA-B35
Source text: as §5

HLA-B40 = system: HLA-B40
Experimental: as §1, §2
The peptides were synthesized as a Prospector PEPscreen®: Custom Peptide Library. Peptides 8-15 amino acids in length were synthesized in 0.5-2 mg quantities with high average purity. Quality control by MALDI-TOF Mass Spectrometry was carried out on 100% of samples.
as §4, with “epitope. The score of the test peptide is reported quantitatively as a percentage of the signal generated by the positive control peptide, and the peptide is indicated as having a putative pass or fail result. Assay performance is confirmed by including an intermediate control peptide that is known to bind with weaker affinity to the allele under investigation.” for “epitope.”

| Substance | REVEAL binding score, HLA-type A1 (HLA-A1) [%] | REVEAL binding score, HLA-type A24 (HLA-A24) [%] | REVEAL binding score, HLA-type A29 (HLA-A29) [%] | REVEAL binding score, HLA-type B8 (HLA-B8) [%] | REVEAL binding score, HLA-type B14 (HLA-B14) [%] | REVEAL binding score, HLA-type B15 (HLA-B15) [%] | REVEAL binding score, HLA-type A11 (HLA-A11) [%] | REVEAL binding score, HLA-type A2 (HLA-A2) [%] | REVEAL binding score, HLA-type A3 (HLA-A3) [%] | REVEAL binding score, HLA-type B27 (HLA-B27) [%] | REVEAL binding score, HLA-type B7 (HLA-B7) [%] | REVEAL binding score, HLA-type B35 (HLA-B35) [%] | REVEAL binding score, HLA-type B40 (HLA-B40) [%] |
| --- | --- | --- | --- | --- | --- | --- | --- | --- | --- | --- | --- | --- | --- |
| ARALAHGVR | 20.62 | 1.15 | 31.96 | 18.91 | 1.10 | 13.58 | 3.83 | 6.72 | 2.35 | 3.55 | 4.70 | 2.45 | 50.23 |
| ATGNLPGCS | 7.13 | 0.64 | 22.84 | 10.73 | 0.87 | 3.81 | 2.54 | 4.62 | 3.64 | 2.56 | 1.12 | 7.00 | 90.48 |
| DLMGYIPLV | 16.67 | 1.14 | 25.64 | 22.65 | 0.23 | 7.67 | 5.01 | 103.34 | 4.66 | 1.05 | 4.84 | 2.49 | 39.33 |
| EL[Nle]GYIPLI | 18.29 | 0.92 | 20.93 | 17.05 | 0.14 | 8.91 | 3.21 | 97.87 | 4.54 | 0.67 | 0.68 | 2.55 | 43.10 |
| GGQIIGGNY | 24.04 | 0.39 | 14.38 | 10.52 | 0.25 | 90.62 | 2.40 | 7.06 | 2.23 | 0.24 | 1.09 | 2.22 | 15.03 |
| GGQIVGGVY | 13.97 | 1.78 | 20.46 | 14.66 | 0.32 | 110.34 | 2.71 | 6.88 | 3.47 | 0.66 | 3.99 | 0.54 | 30.75 |
| GITFSIYLI | 9.61 | 3.05 | 10.42 | 8.94 | 0.63 | 8.15 | 4.88 | 7.27 | 1.42 | 3.29 | 2.07 | 9.27 | 68.30 |
| GKVIDTLTC | 14.77 | 0.41 | 14.26 | 13.63 | 0.16 | 7.31 | 3.96 | 4.89 | 3.69 | 0.84 | 0.25 | 3.11 | 19.45 |
| GNIPGSTYS | 7.54 | 0.00 | 24.38 | 6.32 | 0.34 | 4.80 | 1.54 | 5.07 | 5.04 | 1.58 | 0.94 | 7.86 | 55.59 |
| GNLPGCSFS | 6.44 | 1.13 | 13.48 | 8.71 | 0.81 | 3.96 | 2.41 | 6.11 | 3.54 | 13.44 | 1.84 | 4.80 | 80.68 |
| GP[Cit]IGVRAT | 18.60 | 0.16 | 11.88 | 9.99 | 0.13 | 7.29 | 2.72 | 9.16 | 3.48 | 0.59 | 5.38 | 2.25 | 19.61 |
| GQIIGGNYL | 20.65 | 0.47 | 14.17 | 11.90 | 0.22 | 173.66 | 2.77 | 12.96 | 3.01 | 0.64 | 2.39 | 2.60 | 31.55 |
| GQIVGGVYL | 15.07 | 0.50 | 13.73 | 14.53 | 0.37 | 182.45 | 4.46 | 55.85 | 4.80 | 1.01 | 6.56 | 3.24 | 24.20 |
| GRVIETLTS | 14.42 | 0.88 | 15.59 | 12.91 | 0.20 | 8.31 | 27.62 | 5.26 | 12.46 | 1.05 | 1.25 | 3.56 | 38.91 |
